Test results taken from publication PMC8328489, “Automated Synthesis and Initial Evaluation of (4′-Amino-5′,8′-difluoro-1′H-spiro[piperidine-4,2′-quinazolin]-1-yl)(4-[^18F]fluorophenyl)methanone for PET/MR Imaging of Inducible Nitric Oxide Synthase” (Molecular Imaging, 2021).
Where two headings read alike, the source gives them in different places.

How the values were obtained:
[1] = tested on: iNOS; conditions: cited from earlier work
[2] = dog, 10 min postinjection; cited from earlier work
[3] = Log P measurement (1-octanol/phosphate buffer, UV); assay type: physicochemical; conditions: 1-octanol / 0.02 M phosphate buffer; 1-octanol / phosphate buffer pH 7.4
Description: The partition coefficient of FBAT, determined between 1-octanol and 0.02 M phosphate buffer at pH 7.4, was measured by UV spectrophotometer (SPARK 10 M from Tecan) at wavelength 230 nm.

[4] = tested on: eNOS; conditions: cited from earlier work; for selectivity vs. eNOS: iNOS vs. eNOS
[5] = within 5 min postinjection; cited from earlier work
[6] = tested on: nNOS; parameters: method as in PMID 11327580; conditions: cited from earlier work
[7] = tested on: murine microglial BV2 cells; experiment: In vitro [^18F]FBAT uptake assay; assay type: cell-based; conditions: pretreatment 0.1 mM or 1 mM for 1 h
Description: BV2 cells were cultured as described above, washed three times with fresh medium, pretreated with a selective iNOS inhibitor, aminoguanidine (AMG), (0, 1, or 0.1 mM) for 1 h, and then treated with cell culture media containing LPS and the inhibitor. At the indicated time points, the cells were washed thrice with fresh cell culture media, then incubated in fresh cell culture media continuing the radiotracer [^18F]FBAT at 0.37 MBq/mL for 15, 30, or 60 min, harvested by gentle scraping, and pelleted by centrifugation at 1500 g for 2 min. The weight of the cell pellet and 0.1 mL of the radioactive supernatant was determined. A Packard 5500 gamma counter (PerkinElmer, Billerica, MA, USA) was used to quantify radioactivity as cpm/g cells or cpm/mL media, respectively. Cell-to-medium radioactivity concentration ratios were calculated and plotted over time to evaluate the kinetics of accumulation of the radiotracer.
(§1) iNOS is the enzyme responsible for NO generation in BV2 cells; therefore, accumulation of [^18F]FBAT in BV2 cells before or after iNOS inhibitor versus NO production was also assessed.

[8] = tested on: murine microglial BV2 cells; experiment: LPS-dependent nitric oxide (NO) production, Griess assay; assay type: cell-based; conditions: pretreatment 0.1 or 1 mM
Description: Briefly, murine microglial BV2 cells were cultured in high-glucose Dulbecco's modified Eagle's medium (DMEM) supplemented with 100 U/mL penicillin. The cells were cultured in 6-well plates (~50,000 cells/well) in a humidified 5% CO2 atmosphere at 37°C until ∼60–70% confluent, washed three times with fresh media, and cultured in complete media containing LPS (0, 50, 100, or 200 ng/mL, Sigma-Aldrich, St. Louis, MO, USA). At the indicated time points, the culture media were harvested.
To assay NO, 100 μL aliquots of culture media were added to 100 μL of Griess reagent (1% sulfanilamide in 5% H3PO4) in 96-well plates, incubated at room temperature for 10 min; then, 50 μL NED Griess reagent (0.1% N-naphthyl-ethylenediamine dihydrochloride) was added and incubated for 10 min, and the absorbance values were determined at 540 nm using a TECAN Sunrise ELISA Reader. Fresh culture medium was used as a blank. The concentrations of nitrite were determined by comparison with a standard curve of sodium nitrite prepared in cell culture media.
as §1

[9] = target: T1, iNOS (Mus musculus, UniProt P29477); experiment: In vivo brain PET/MR imaging of LPS-induced iNOS expression (SUV, SUR, AUC) incl. aminoguanidine blocking; parameters: species or system C57BL/6 mice; conditions: 50 mg/kg i.p. pretreatment
T1 construct: tracer to detect iNOS expression in mice injected with lipopolysaccharide (LPS) to induce brain inflammation; from tissue; host or cells: brain of living C57BL/6 mice (LPS-induced); fixed brain sections for IHC
Description: For the imaging experiments, twelve C57BL/6 mice were injected i.p. with 0.9% NaCl, eighteen mice were injected i.p. with 0.1 mL of LPS in saline (5 mg/kg), and six mice were injected i.p. with aminoguanidine (Sigma-Aldrich) 30 min prior to 5 mg/kg LPS. In vivo imaging was performed 3 h or 24 h after injection of LPS; then, the mice were immediately humanely euthanized and the brains were removed for immunostaining.
Mice (n = 30) were anesthetized with 2% isoflurane (in oxygen) and injected with [^18F]FBAT (11.1 MBq; 0.3 mCi) via the tail vein. Dynamic PET images were obtained in fully three-dimensional list mode for 30 min using a small animal SuperArgus 2r PET system (SEDECAL, Madrid, Spain) or 7T PETMR Inline (Bruker, Rheinstetten, Germany; energy window, 350-650 keV; timing window, 6 ns). Images were acquired every 10 s for 12 images, 60 s for three images, 300 s for three images, or 600 s for […]. The anatomical structure of the brain was imaged using T2 MRI. The MRI sequences included 0.5 mm thick T2 Turbo RARE high-resolution images (TR = 3000 ms, TE, 46 ms, matrix, 512 × 256, average, 40, slice number, 30, field of view, 20 × 10 mm).
After determining the optimal imaging time point for [^18F]FBAT, we performed a blocking study using a selective iNOS inhibitor to assess the specificity of the tracer for iNOS. Separate 7T PET/MR studies with [^18F]FBAT were performed for mice (n = 6) administered a bolus of aminoguanidine (50 mg/kg i.p.) 30 min prior to administration of [^18F]FBAT. The time course of [^18F]FBAT radioactivity in the brain after administration of the iNOS inhibitor was assessed and compared to that of the mice in the LPS 3 h group.
Images were reconstructed by the Fourier rebinning algorithm and two-dimensional filtered back projection using a ramp filter with a cutoff at Nyquist. The regional radioactivity concentration (kBq/cc) of [^18F]FBAT was estimated from the mean pixel values within the region of interest (ROI) corresponding to MR images of various organs and regions of the brain. ROI for carotid artery, heart muscle, lung, liver, spleen, and kidney were defined and time activity curves (TACs) generated. TACs for whole brain, cortex, cerebellum, and brainstem were also determined as described above.
The concentration of radioactivity (kBq/cc, μCi/cc) was converted to standardized uptake value (SUV), and the mean and standard deviation (SD) of radiotracer accumulation values were calculated for different organs and regions of the brain. Data were analyzed with PMOD 4.0 software (PMOD Technologies Ltd., Zurich, Switzerland).

[10] = tested on: iNOS; experiment: Immunohistochemistry of iNOS in brain sections; assay type: in vivo, C57BL/6 mice; conditions: pretreatment, vs LPS 3 h group
Description: After imaging, mice were terminally anesthetized with ketamine/xylazine and perfused with 4% paraformaldehyde, and the brains were dissected, postfixed overnight in 4% paraformaldehyde at 4°C. Five-micrometer thick paraffin-embedded brain tissues were deparaffinized, rehydrated, microwaved in 10 mM citrate buffer (pH 6.0) at 100°C for 10 min for antigen retrieval, washed, incubated in 3% […] for 15 min at RT to inhibit endogenous peroxidases, and blocked in blocking solution for 60 min at RT.
Sections were incubated with primary NOS2/NOS1 antibodies (Cat# MAB 1627; Abnova, Walnut, CA, USA) diluted 1 : 100 overnight at 4°C, developed using the Vectastain Elite kit (Vector Laboratories, Burlingame, CA) following the manufacturer's instructions, and examined using an AxioScope A1 microscope (Zeiss, Oberkochen, Germany) equipped with an Axiocam 512 color digital camera (Zeiss).
The immunohistochemistry images were converted into 8-bit grayscale images in the range. Immunostaining intensity was manually measured in the region of interest (ROI). The median (25%, 75% interquartile range) percentage score for each group (control, LPS 3 h, and LPS 24 h) was calculated as the sum of the individual number of slides within the group.

COC(=O)[C@@H](N)CCCN=C(N)N[N+](=O)[O-] [[^11C]L-NAME, N-omega-nitro-L-arginine [^11C]methyl ester]
IC50 ([1]; read-out: iNOS IC50): 20 µM
fraction of radioactivity present as [^11C]methanol (metabolite) [2]: 65%

NC1=NC2(CCN(C(=O)c3ccc(F)cc3)CC2)Nc2c(F)ccc(F)c21 [FBAT, (4′-amino-5′,8′-difluoro-1′H-spiro[piperidine-4,2′-quinazolin]-1-yl)(4-fluorophenyl)methanone]
logP [3]: 1.4 ± 0.27

[11CH3]SC(=N)N [[^11C]MITU, S-[^11C]methylisothiourea]
selectivity vs. eNOS [4]: 2.3 fold

Cc1cc(N)nc(CC(C)F)c1 (stereo not drawn) [[^18F]9, [^18F]6-(2-fluoropropyl)-4-methyl-pyridin-2-amine]
parent fraction of activity in the blood [5]: 40.3%

NC1=NC(c2ccc(F)cc2)Cc2cccc(F)c21 (stereo not drawn) [FFDI, 8-fluoro-3-(4-fluorophenyl)-3,4-dihydro-1-isoquino-linamine]
IC50 ([1]; read-out: IC50 (affinity for iNOS)): 0.16 µM
selectivity for iNOS vs. eNOS [4]: ~ 1000 fold
selectivity for iNOS vs. nNOS [6]: 100 fold

N=C(N)SCC[18F] [[^18F]FEITU, S-(2-[^18F]fluoroethyl)isothiourea]
IC50 ([1]; read-out: iNOS IC50): 0.14 µM
selectivity vs. eNOS [4]: 9 fold

N=C(N)NN [aminoguanidine, reference compound]
effect on LPS-induced [^18F]FBAT accumulation in BV2 cells [7]: inhibited
effect on LPS-induced [^18F]FBAT accumulation in BV2 cells ([7]; listed as AMG): significantly reduced
effect on LPS-induced NO production [8]: completely abolished
effect on [^18F]FBAT accumulation (SUV, AUC, Vt) in brain of LPS-induced mice [9]: significantly decreased
effect on [^18F]FBAT accumulation (SUV, AUC, Vt) in brain of LPS-induced mice ([9]; listed as Aminoguanidine): significantly reduced
effect on LPS-induced iNOS immunoactivity, brainstem [10]: significantly reduced
effect on LPS-induced iNOS immunoreactivity, cortex [10]: significantly reduced

CSC(=N)N [[^11C]MITU, S-[^11C]methylisothiourea]
IC50 ([1]; read-out: iNOS IC50): 3 µM
